Measured values taken from US20210316003A1 (Immunomedics, Inc., priority 2020, published 2021).
Where “and” joins values, the source holds several entries; their conditions need not be identical. Equal values may be shown once. Entries after “also recorded” stand apart in the source; their conditions may differ.

Assays:
[1] = test system: patients with metastatic urothelial cancer (mUC); test: Phase I/II trial IMMU-132-01 (NCT01631552), mUC cohort: efficacy by RECIST 1.1; format: in vivo, human; conditions: for ORR (objective response rate): 10 mg/kg days 1 and 8 of 21-day cycles
Procedure: Endpoints included safety, investigator-evaluated objective response rate (ORR per RECIST 1.1), clinical benefit rate, duration of response (DOR), progression-free survival (PFS), and overall survival (OS). Sequencing analysis of differentially mutated and expressed genes and pathways was performed in subsets of tumors from responders and non-responders.
All patients had metastatic disease measurable by Response Evaluation Criteria in Solid Tumors, version 1.1 (RECIST 1.1) at the time of enrollment. Patients were required to have an Eastern Cooperative Oncology Group (ECOG) performance status of 0 to 1 with expected survival ≥6 months and adequate hepatic, renal, and hematologic function. […] Patients with stable brain metastases could be included only if they were ≥2 weeks beyond high-dose steroid treatment. Pre-selection of patients based on tumor Trop-2 expression was not required.
Hematopoietic growth factors or blood transfusions were allowed at the investigator's discretion, but not prior to the first dose. Other supportive care (antiemetics, anti-diarrheal medications, or bone-stabilizing agents) were allowed as medically needed.
Staging CT/magnetic resonance imaging (MRI) scans were obtained at baseline and at 8-week intervals from the start of treatment until progression requiring treatment discontinuation. […] Subsequent scans were done at 8-week intervals after the confirmatory scan. Patients with evidence of clinical benefit were permitted to receive treatment following disease progression. Response was assessed by investigators using RECIST, version 1.1. Efficacy endpoints included objective response rate (ORR), time to response, duration of response (DOR), clinical benefit rate (CBR; defined as CR, PR, or stable disease ≥6 months), progression-free survival (PFS), and overall survival (OS).
The data cut-off date for this analysis was Sep. 1, 2018. ORR and CBR were calculated with 95% confidence intervals estimated by the Clopper-Pearson method (Clopper & Pearson, 1934, Biometrika 26:404-13). PFS, OS, and time-to-event endpoints were analyzed by the Kaplan-Meier method, with medians and corresponding 95% confidence intervals determined by the Brookmeyer and Crowley method with log-log transformation. Descriptive statistics were used to characterize AEs. Fischer's exact test was applied to a matrix of pathway-associated gene counts of mutated and wild type phenotypes between responders and non-responders to identify pathways enriched in either of the two response groups. P-values for single sample GSEA (ssGSEA) enrichment score differences between the responder and non-responder patient groups were obtained from the Mann-Whitney statistical test.

patients with mSCLC [2] = test: Antibody responses to sacituzumab govitecan, the IgG antibody and SN-38 in serum (ELISA), mSCLC; format: in vivo, human; conditions: treatment up to 22 months, up to 63 doses
Procedure: Positivity required at least 10% of the tumor cells to be stained, with an intensity scored as 1+(weak), 2+(moderate), and 3+(strong). […] Assay sensitivity is 50 ng/mL for the ADC and the IgG, and 170 ng/mL for anti-SN-38 antibody.

[3] = Serum pharmacokinetics (ELISA for IgG and intact conjugate, HPLC for SN-38); format: in vivo, human; conditions: patients
Procedure: Two ELISA methods were used to measure the clearance of the IgG (capture with anti-hRS7 idiotype antibody) and the intact conjugate (capture with anti-SN-38 IgG/probe with anti-hRS7 idiotype antibody). SN-38 was measured by HPLC.

patients with mSCLC [4] = conditions: in vivo
Procedure: (§1) Doses of 8 or 10 mg/kg were given on days 1 and 8 of a 21-day cycle, with contingencies to delay (maximum of 2 weeks). Toxicities were managed by supportive hematopoietic growth-factor therapy for blood cell reduction, dose delays and/or modification as specified in the protocol (e.g., 25% of prior dose), or by standard medical practice. Treatment was continued until disease progression, initiation of alternative anticancer therapy, unacceptable toxicity, or withdrawal of consent.
(§2) Safety evaluations were conducted during scheduled visits or more frequently if warranted.
(§3) Statistical Analyses—The data included in the analyses were derived from patients enrolled from November 2013 to June 2016, with follow-up through Jan. […] The frequency and severity of adverse events (AEs) were defined by MedDRA Preferred Term and System Organ Class (SOC) version 10, with severity assessed by NCI-CTCAE v4.03.

[5] = test system: patients with diverse metastatic cancers; conditions: human, in vivo
Source text: In the Phase I and the expansion phases, there are now 48 pts (excluding PDC) who are assessable by RECIST/CT for best response.

[6] = test system: patients with metastatic TNBC; conditions: second line or later (Bardia et al., 2019); cited from earlier work
patients with mSCLC [7] = conditions: 53 mSCLC patients (Gray et al., 2017); cited from earlier work
TNBC xenografts = conditions: nude mice bearing TNBC xenografts, independent of BRCA1/2 mutation status; cited from earlier work
patients with mSCLC [8] = test: Phase I/II trial (NCT01631552), mSCLC: safety and tolerability; conditions: N = 53
Procedure: as §1, §2, §3

[9] = 10 mg/kg, N = 45, listed as Sacituzumab Govitecan

## sacituzumab govitecan
[1]; N = 45, 10 mg/kg
  ORR (objective response rate): 31% and 31.1%
[1]; N = 45, listed as Sacituzumab Govitecan, 10 mg/kg
  ORR (objective response rate): 31.1%
[1]; 10 mg/kg, 4 of 15, 10 mg/kg
  ORR, prior CPI- and platinum-treated patients: 27% and 26.7%
[1]; 10 mg/kg, 4 of 17, 10 mg/kg
  ORR, prior CPI-treated patients: 24% and 23.5%
[1]; 10 mg/kg, 5 of 15, 10 mg/kg
  ORR, patients with liver metastases: 33% and 33.3%
[1]; 10 mg/kg, 9 of 33
  ORR, patients with any visceral involvement: 27.3%
[1]; 10 mg/kg, N = 45
  Clinical benefit rate, No. of patients: 21
  Median OS: 16.3 months
  Median PFS: 7.3 months
  ORR, No. of patients: 14
[1]; 10 mg/kg, N = 45, 10 mg/kg
  CR, % of patients: (4.4) %
  PD, % of patients: (22.2) %
  PR, % of patients: (26.7) %
[1]; [9]
  CR, % of patients: 4.4%
  PD, % of patients: 22.2%
  PR, % of patients: 26.7%
[1]; 10 mg/kg, responders n = 14
  Median DOR (duration of response): 12.9 months
  Time to onset of response, median: 1.9 months
  Time to onset of response, range: 1.7-7.4 months
[1]; 3 patients, FIG. 1B
  Ongoing response of patients still on treatment at time of analysis: > 17 months and > 19 months and > 29 months
[1]; 7 of 14 responders
  Responders with response duration of more than 12 months: 50%
[1]; 31 of 40 patients with post-baseline assessment
  Patients with a reduction of target lesions: 77.5%
Patients with mSCLC [2]
  Immunogenicity: antibodies to sacituzumab govitecan, the hRS7 antibody, or SN-38: not immunogenic; also recorded: No neutralizing antibodies
[3]; ELISA
  Clearance of intact conjugate compared with the IgG: cleared more quickly than the IgG
[3]; serum
  Time for the conjugate to clear from the serum: ≤ 3 days
[3]; serum, HPLC (Unbound and TOTAL)
  SN-38 in the serum bound to the IgG (non-glucuronidated form): > 95%
Patients with mSCLC [4]
  Anemia, grade 3 or 4: 8%
  Diarrhea, grade 3 or 4: 9%
  Fatigue, grade 3 or 4: 13%
  Hyponatremia, grade 3 or 4: 8%
  Increased alkaline phosphatase, grade 3 or 4: 8%
  Infusion-related reactions: No infusion-related reactions were reported
  Neutropenia, grade 3 or 4: 34%
Patients with mSCLC [4]; 8 mg/kg
  Patients with dose reduction: 13%
[5]
  Anti-hRS7 or anti-SN-38 antibodies: No anti-hRS7 or anti-SN-38 antibodies were detected
[6]
  Median progression-free survival (PFS): 5.5 months
  Overall survival (OS): 13.0 months
  Response rate: 33.3%
Patients with mSCLC [7]
  Median OS: 7.5 months
  Median PFS: 3.7 months
  Median response duration: 5.7 months
  ORR: 14%
  Patients with tumor shrinkage from baseline: Sixty
TNBC xenografts
  Tumor growth in combination with olaparib, rucaparib and talazoparib: Synthetic lethality and synergistic inhibition of tumor growth
Patients with mSCLC [8]
  Treatment-related deaths: No treatment-related deaths were observed
